Measured values: article PMC4929566, “The metabolome of [2-^14C](−)-epicatechin in humans: implications for the assessment of efficacy, safety, and mechanisms of action of polyphenolic bioactives” (Scientific Reports, 2016)
Where two headings read alike, the source gives them in different places.

What was measured:
[1] = Metabolite profiling and quantification in urine (HPLC-MS2 with on-line radioactivity detector); assay type: in vivo, humans; settings: human, oral 207 μmol 14C-EC, mean ± SEM n=8; for Metabolite present in urine, collection period 0–4 h / Metabolite present in urine, collection period 4–8 h / Metabolite present in urine, collection period 8–12 h / Metabolite present in urine, collection period 12–24 h / Metabolite present in urine, collection period 24–48 h: – = not detected
Protocol: (§1) The study was a single-center, open-label, and non-randomized study with two distinct elements: a run-in phase to establish a more defined dietary background of dietary flavanols and procyanidins and the subsequent ^14C-EC ADME study (Fig. 1B). Participants (n = 12) were enrolled in the run-in phase (day –17 to day –4) and asked to supplement their daily diet for 14 days with a commercially available flavanol-containing cocoa-based drink (250 mg cocoa flavanols; 40 mg of EC). This was followed by a 4-day period (day –4 to 0) of a low-flavanol diet. One day (study day -1) prior to the initialization of the ^14C-EC ADME study, all eligible participants were accommodated under controlled conditions at a metabolic research facility (Covance Clinical Pharmacology Inc., Wisconsin) until completion of the study. Based on the compliance of the first part of the study, 8 participants were selected to participate in the ^14C-EC ADME study. During the ^14C-EC ADME study (Fig. 1B.), volunteers received a low-flavanol, standardized high-fiber diet, and were encouraged to maintain an adequate level of hydration (water ad libitum). Volunteers were asked to fast for 8 h before the initiation of the study and for at least 4 h after the intake of the ^14C-EC test drink (water ad libitum). Venous blood samples were taken using Vacutainer collection tubes, containing potassium EDTA at 0 h (just prior to ^14C-EC ingestion), and at 0.25, 0.5, 1, 1.5, 2, 2.5, 3, 4, 6, 8, 10, 12, 16, 24, 36, and 48 h after test drink consumption. Plasma was obtained by whole blood centrifugation at 2000 × g for 15 min at 5 °C, separated into aliquots and stored at −80 °C until analysis. All urine and feces from the time just prior to the consumption of the test drink were collected at different time intervals for radioactivity and metabolite profiling. Clinical parameters and laboratory evaluations of participants were assessed at screening, on study day –1, and after completing the study, as detailed in Supplementary Methods.
(§2) Samples were processed as described previously[18] and analyzed by HPLC-MS^2 in conjunction with an on-line HPLC-radioactivity monitor as described in SI Materials and Methods. Identification of metabolites involved comparing the retention time with authentic standards and MS^2 fragmentation patterns (Supplementary Methods). Quantification of metabolites in urine was based on HPLC radioactivity peak area (limit of quantification: 10^3 dpm). Due to the low levels of radioactivity, quantification in plasma was based on targeted HPLC-MS^2 using standard curves obtained with authentic standards (Supplementary Methods).
HPLC-MS identifications of radiolabeled [2-14C](−)-epicatechin metabolites in urine Urine was analyzed with radioactivity and mass spectrometry (MS) detection using a 250 mm x 4.6 mm i.d. 5 µm Luna Phenyl-Hexyl column (Phenomenex, Macclesfield, UK) […]
formic acid. Metabolite identification was performed by 1) co-chromatography of metabolites with reference compounds and a comparison of their MS fragmentation patterns 2, 2) by comparing m/z fragmentation patterns with earlier in-house observed […]
patterns to databases of metabolites reported in earlier polyphenol feeding studies5-7.
Supplementary Table S2, which also provides information on the MSI MI (Metabolite Standards Initiative – Metabolites Identification) level, a confidence level for identification where level 1 stands for fully elucidated (i.e., by comparison with a standard) and level 2 for a well characterized, but not yet fully structurally elucidated 8

[2] = Metabolite profiling and pharmacokinetics in plasma (targeted HPLC-MS2); assay type: in vivo, humans; settings: for Cmax / AUC(0-t) / half-life / Tmax / AUC0-24h / T1/2 (elimination half-life): human plasma, oral 60 mg 14C-EC, mean ± SEM n=8; for AUC(0-t): read-out: AUC0-24h; for half-life: read-out: T1/2 (elimination half-life) (converted); for Identification as human EC metabolite: human plasma and urine, radiolabeled tracer
Protocol: as §1, §2
Data are expressed as mean values ± standard error, or as otherwise specified. Pharmacokinetic parameters were calculated using non-compartmental analysis with WinNonlin (Pharsight Corporation, Version 5.2).
5-20% acetonitrile in 0.1 % formic acid. Supplementary Table S2 provides details of HPLC retention times and the m/z values that were monitored.
Supplementary Table S2. Detection of (−)-epicatechin metabolites. HPLC retention times and selected reaction monitoring ions used for the HPLC-MS analysis of (−)-epicatechin metabolites in plasma. […]
Structurally related (-)-epicatechin metabolites in humans: assessment using de novo chemically synthesized authentic standards. Free Radic Biol Med 52, 1403- […]
3 Borges, G. et al. Bioavailability of multiple components following acute ingestion of a polyphenol-rich juice drink. Mol Nutr Food Res 54 Suppl 2, S268-277, […]
4 Stalmach, A. et al. Absorption, metabolism, and excretion of green tea flavan-3-ols in humans with an ileostomy. Mol Nutr Food Res 54, 323-334,

Molecule	Metabolite present in urine, collection period 0–48 h [1] [μ mol]	Metabolite present in urine, collection period 4–8 h [1] [μ mol]	Metabolite present in urine, collection period 8–12 h [1] [μ mol]	Metabolite present in urine, collection period 12–24 h [1] [μ mol]	AUC0-24h [2] [µM·h]	Cmax [2] [nM]	T1/2 (elimination half-life) [2] [h]	Tmax [2] [h]	also measured
O=C(O)[C@H]1O[C@@H](Oc2cc([C@H]3Oc4cc(O)cc(O)c4C[C@H]3O)ccc2O)[C@H](O)[C@@H](O)[C@@H]1O [(−)-Epicatechin-3′-O-glucuronide, (−)-epicatechin-3′-O-β-D-glucuronide]	18.6 ± 2.5	5.7 ± 1.3	2.9 ± 0.8	2.0 ± 0.8					Metabolite present in urine, collection period 0–4 h [1]: 8.0 ± 1.4 μ mol; Cmax ([2]; male): 359 ± 23 nM; AUC(0-t) ([2]; male): 1.62 ± 0.332 µM·h; half-life ([2]; male): 2 ± 1.1 h; Tmax ([2]; male, read-out: Tmax): 0.8 ± 0.1 h
O=C(O)CNC(=O)c1ccccc1 [Hippuric acid]	26.4 ± 7.1	7.2 ± 3.9	5.6 ± 2.6	7.1 ± 2.1					Metabolite present in urine, collection period 0–4 h [1]: 0.6 ± 0.4 μ mol; Metabolite present in urine, collection period 24–48 h [1]: 5.9 ± 4.1 μ mol
COc1cc([C@H]2Oc3cc(O[C@@H]4O[C@H](C(=O)O)[C@@H](O)[C@H](O)[C@H]4O)cc(O)c3C[C@H]2O)ccc1O [3′-O-methyl(−)-epicatechin-7-O-β-D-glucuronide]					0.077 ± 0.031	39 ± 5	1.3 ± 0.3	0.9 ± 0.1	
O=C(O)[C@H]1O[C@@H](Oc2cc(O)c3c(c2)O[C@H](c2ccc(O)c(O)c2)[C@H](O)C3)[C@H](O)[C@@H](O)[C@@H]1O [(−)-Epicatechin-7-O-glucuronide, (−)-epicatechin-7-O-β-D-glucuronide]					0.045 ± 0.014	22 ± 7	1.7 ± 0.3	0.8 ± 0.1	
Hydroxyphenylacetic acid-sulfate	2.9 ± 1.1	0.9 ± 0.5	0.8 ± 0.6	1.2 ± 0.4					
O=S(=O)(O)Oc1cc(O)cc2c1C[C@@H](O)[C@@H](c1ccc(O)c(O)c1)O2 [(−)-Epicatechin-5-sulfate]	1.3 ± 0.2				0.092 ± 0.025	32 ± 4	1.9 ± 0.3	0.8 ± 0.1	Metabolite present in urine, collection period 0–4 h [1]: 1.3 ± 0.2 μ mol
O=S(=O)(O)Oc1ccc([C@H]2Oc3cc(O)cc(O)c3C[C@H]2O)cc1O [(−)-epicatechin-4′-sulfate, reference compound]									Identification as human EC metabolite [2]: could not be identified by us
O=C1CCC(Cc2ccc(O[C@@H]3O[C@H](C(=O)O)[C@@H](O)[C@H](O)[C@H]3O)c(O)c2)O1 (stereo partly shown) [5-(3′-Hydroxyphenyl)-γ-valerolactone-4′-O-glucuronide]					1.33 ± 0.396	52 ± 9	4.4 ± 1.3	6.1 ± 0.8	
COc1cc([C@H]2Oc3cc(O)cc(O[C@@H]4O[C@H](C(=O)O)[C@@H](O)[C@H](O)[C@H]4O)c3C[C@H]2O)ccc1O [3′-O-methyl(−)-epicatechin-5-O-β-D-glucuronide]					0.025 ± 0.01	23 ± 5	1.3 ± 0.2	0.8 ± 0.2	Relative amount (% of total) of individual SREM in plasma ([2]; human, 1 h post 14C-EC intake, Fig. 4A): < 3%
COc1cc([C@H]2Oc3cc(O)cc(OS(=O)(=O)O)c3C[C@H]2O)ccc1O [3′-O-Methyl-(−)-epicatechin-5-sulfate, 3′-O-methyl-(−)-epicatechin-5-sulfate]	9.6 ± 1.2	1.8 ± 0.3	0.4 ± 0.1	0.3 ± 0.2					Metabolite present in urine, collection period 0–4 h [1]: 7.1 ± 0.9 μ mol; Cmax ([2]; male): 240 ± 24 nM; AUC(0-t) ([2]; male): 0.915 ± 0.178 µM·h; half-life ([2]; male): 1.6 ± 0.1 h; Tmax ([2]; male, read-out: Tmax): 0.9 ± 0.1 h
O=C(O)CCC(O)Cc1ccc(O[C@@H]2O[C@H](C(=O)O)[C@@H](O)[C@H](O)[C@H]2O)c(O)c1 (stereo partly shown) [5-(3′-Hydroxyphenyl)-γ-hydroxyvaleric acid-4′-O-glucuronide]	2.3 ± 0.7	1.3 ± 0.5	0.5 ± 0.3	0.5 ± 0.1	0.835 ± 0.355	54 ± 14	6.5 ± 0.8	4.9 ± 1.3	
O=C(O)CCC(O)Cc1cccc(OS(=O)(=O)O)c1 (stereo not shown) [5-(Phenyl)-4-hydroxyvaleric acid-3′-sulfate]	2.9 ± 1.6	1.9 ± 1.0	0.3 ± 0.2	0.7 ± 0.7					
O=C(O)CNC(=O)c1cccc(O)c1 [3′-Hydroxyhippuric acid]	16.9 ± 5.8	1.6 ± 0.5	2.8 ± 0.7	7.0 ± 2.9					Metabolite present in urine, collection period 24–48 h [1]: 5.5 ± 2.3 μ mol
5-(Phenyl)-γ-valerolactone-O-sulfate-O-glucuronide					1.02 ± 0.481	39 ± 9	6.4 ± 2.2	5.5 ± 1.1	
O=C1CCC(Cc2cccc(OS(=O)(=O)O)c2)O1 (stereo not shown) [5-(Phenyl)-γ-valerolactone-3′-sulfate]	4.7 ± 2.7	2.4 ± 1.1	1.2 ± 0.9	1.0 ± 0.8					Metabolite present in urine, collection period 0–4 h [1]: 0.1 ± 0.1 μ mol
O=C(O)[C@H]1O[C@@H](Oc2ccc([C@H]3Oc4cc(O)cc(O)c4C[C@H]3O)cc2O)[C@H](O)[C@@H](O)[C@@H]1O [(−)-epicatechin-4′-β-D-glucuronide, reference compound]									Identification as human EC metabolite [2]: could not be identified by us
O=C1CCC(Cc2ccc(O)c(O[C@@H]3O[C@H](C(=O)O)[C@@H](O)[C@H](O)[C@H]3O)c2)O1 (stereo partly shown) [5-(4′-Hydroxyphenyl)-γ-valerolactone-3′-O-glucuronide]									Cmax ([2]; male): 125 ± 30 nM; AUC(0-t) ([2]; male): 1.91 ± 0.787 µM·h; half-life ([2]; male): 3.1 ± 0.6 h; Tmax ([2]; male, read-out: Tmax): 6.8 ± 0.8 h
5-(Hydroxyphenyl)-γ-hydroxyvaleric acid-sulfate					1.49 ± 0.475	56 ± 9	7.6 ± 3.5	5.9 ± 0.6	
O=S(=O)(O)Oc1cc(O)c2c(c1)O[C@H](c1ccc(O)c(O)c1)[C@H](O)C2 [(−)-Epicatechin-7-sulfate]					0.043 ± 0.016	19 ± 3	2.2 ± 0.4	1.1 ± 0.2	
